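The compound was tested at five concentrations on cells cultured in 96-well plates, with a 48-hour exposure period. GI50: concentration for 50% inhibition of growth. TGI is the concentration that stops growth completely.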
Assays:
Assay in all cases: DTP human tumour cell line panel, 48 h
786-0 renal = system: 786-0 renal
A498 renal = system: A498 renal
A549 NSCLC = system: A549 NSCLC
ACHN renal = system: ACHN renal
BT-549 breast = system: BT-549 breast
CAKI-1 renal = system: CAKI-1 renal
CCRF-CEM leukemia = system: CCRF-CEM leukemia
COLO 205 colon = system: COLO 205 colon
DU-145 prostate = system: DU-145 prostate
EKVX NSCLC = system: EKVX NSCLC
HCC-2998 colon = system: HCC-2998 colon
HCT-116 colon = system: HCT-116 colon
HCT-15 colon = system: HCT-15 colon
HL-60(TB) leukemia = system: HL-60(TB) leukemia
HOP-62 NSCLC = system: HOP-62 NSCLC
HOP-92 NSCLC = system: HOP-92 NSCLC
HS 578T breast = system: HS 578T breast
HT29 colon = system: HT29 colon
IGROV1 ovarian = system: IGROV1 ovarian
K-562 leukemia = system: K-562 leukemia
KM12 colon = system: KM12 colon
LOX IMVI melanoma = system: LOX IMVI melanoma
M14 melanoma = system: M14 melanoma
MALME-3M melanoma = system: MALME-3M melanoma
MCF7 breast = system: MCF7 breast
MDA-MB-231 breast = system: MDA-MB-231 breast
MDA-MB-435 = system: MDA-MB-435
MOLT-4 leukemia = system: MOLT-4 leukemia
NCI-H226 lung = system: NCI-H226 lung
NCI-H23 lung = system: NCI-H23 lung
NCI-H460 lung = system: NCI-H460 lung
NCI-H522 lung = system: NCI-H522 lung
NCI/ADR-RES ovarian = system: NCI/ADR-RES ovarian
OVCAR-3 ovarian = system: OVCAR-3 ovarian
OVCAR-4 ovarian = system: OVCAR-4 ovarian
OVCAR-5 ovarian = system: OVCAR-5 ovarian
OVCAR-8 ovarian = system: OVCAR-8 ovarian
PC-3 prostate = system: PC-3 prostate
RPMI-8226 leukemia = system: RPMI-8226 leukemia
RXF 393 renal = system: RXF 393 renal
SF-268 CNS = system: SF-268 CNS
SF-295 CNS = system: SF-295 CNS
SF-539 CNS = system: SF-539 CNS
SK-MEL-2 melanoma = system: SK-MEL-2 melanoma
SK-MEL-28 melanoma = system: SK-MEL-28 melanoma
SK-MEL-5 melanoma = system: SK-MEL-5 melanoma
SK-OV-3 ovarian = system: SK-OV-3 ovarian
SN12C renal = system: SN12C renal
SNB-19 CNS = system: SNB-19 CNS
SNB-75 CNS = system: SNB-75 CNS
SW-620 colon = system: SW-620 colon
T-47D breast = system: T-47D breast
TK-10 renal = system: TK-10 renal
U251 CNS = system: U251 CNS
UACC-257 melanoma = system: UACC-257 melanoma
UACC-62 melanoma = system: UACC-62 melanoma
UO-31 renal = system: UO-31 renal
SR leukemia = system: SR leukemia

Cn1cc(-c2nonc2-c2c[nH]c3ccccc23)c2ccccc21
GI50 (786-0 renal): 0.611 µM
TGI (786-0 renal): 7.94 µM
GI50 (A498 renal): 0.435 µM
TGI (A498 renal): 2.11 µM
GI50 (A549 NSCLC): 0.728 µM
TGI (A549 NSCLC): 22.1 µM
GI50 (ACHN renal): 0.527 µM
TGI (ACHN renal): 13.4 µM
GI50 (BT-549 breast): 0.588 µM
TGI (BT-549 breast): 7.78 µM
GI50 (CAKI-1 renal): 0.413 µM
TGI (CAKI-1 renal): 15 µM
GI50 (CCRF-CEM leukemia): 0.396 µM
TGI (CCRF-CEM leukemia): 27.9 µM
GI50 (COLO 205 colon): 0.465 µM
TGI (COLO 205 colon): 10.5 µM
GI50 (DU-145 prostate): 0.511 µM
TGI (DU-145 prostate): 12.7 µM
GI50 (EKVX NSCLC): 0.567 µM
TGI (EKVX NSCLC): 16 µM
GI50 (HCC-2998 colon): 1.26 µM
TGI (HCC-2998 colon): 7.08 µM
GI50 (HCT-116 colon): 0.404 µM
TGI (HCT-116 colon): 10.5 µM
GI50 (HCT-15 colon): 0.354 µM
TGI (HCT-15 colon): 11.3 µM
GI50 (HL-60(TB) leukemia): 0.277 µM
TGI (HL-60(TB) leukemia): 0.731 µM
GI50 (HOP-62 NSCLC): 0.47 µM
TGI (HOP-62 NSCLC): 17 µM
GI50 (HOP-92 NSCLC): 1.08 µM
TGI (HOP-92 NSCLC): 9.91 µM
GI50 (HS 578T breast): 0.298 µM
TGI (HS 578T breast): 2.32 µM
GI50 (HT29 colon): 0.35 µM
TGI (HT29 colon): 10.8 µM
GI50 (IGROV1 ovarian): 0.574 µM
TGI (IGROV1 ovarian): 18.3 µM
GI50 (K-562 leukemia): 0.223 µM
TGI (K-562 leukemia): > 36.9 µM
GI50 (KM12 colon): 0.396 µM
TGI (KM12 colon): 8.74 µM
GI50 (LOX IMVI melanoma): 0.65 µM
TGI (LOX IMVI melanoma): 13 µM
GI50 (M14 melanoma): 0.317 µM
TGI (M14 melanoma): 12 µM
GI50 (MALME-3M melanoma): 0.635 µM
TGI (MALME-3M melanoma): 17.7 µM
GI50 (MCF7 breast): 0.329 µM
TGI (MCF7 breast): 15.3 µM
GI50 (MDA-MB-231 breast): 0.489 µM
TGI (MDA-MB-231 breast): 3.23 µM
GI50 (MDA-MB-435): 0.182 µM
TGI (MDA-MB-435): 0.494 µM
GI50 (MOLT-4 leukemia): 0.499 µM
TGI (MOLT-4 leukemia): 14.8 µM
GI50 (NCI-H226 lung): 1.43 µM
TGI (NCI-H226 lung): 24.3 µM
GI50 (NCI-H23 lung): 0.85 µM
TGI (NCI-H23 lung): 19.5 µM
GI50 (NCI-H460 lung): 0.375 µM
TGI (NCI-H460 lung): 7.78 µM
GI50 (NCI-H522 lung): 0.366 µM
TGI (NCI-H522 lung): 9.79 µM
GI50 (NCI/ADR-RES ovarian): 0.378 µM
TGI (NCI/ADR-RES ovarian): 14 µM
GI50 (OVCAR-3 ovarian): 0.323 µM
TGI (OVCAR-3 ovarian): 2.01 µM
GI50 (OVCAR-4 ovarian): 1.52 µM
TGI (OVCAR-4 ovarian): 17 µM
GI50 (OVCAR-5 ovarian): 1.24 µM
TGI (OVCAR-5 ovarian): 16.4 µM
GI50 (OVCAR-8 ovarian): 0.545 µM
TGI (OVCAR-8 ovarian): 14.7 µM
GI50 (PC-3 prostate): 0.488 µM
TGI (PC-3 prostate): 17.2 µM
GI50 (RPMI-8226 leukemia): 0.369 µM
TGI (RPMI-8226 leukemia): 5.96 µM
GI50 (RXF 393 renal): 0.378 µM
TGI (RXF 393 renal): 5.7 µM
GI50 (SF-268 CNS): 0.725 µM
TGI (SF-268 CNS): 13.2 µM
GI50 (SF-295 CNS): 0.352 µM
TGI (SF-295 CNS): 2.97 µM
GI50 (SF-539 CNS): 0.276 µM
TGI (SF-539 CNS): 1.07 µM
GI50 (SK-MEL-2 melanoma): 0.496 µM
TGI (SK-MEL-2 melanoma): 14.6 µM
GI50 (SK-MEL-28 melanoma): 1.45 µM
TGI (SK-MEL-28 melanoma): 18.1 µM
GI50 (SK-MEL-5 melanoma): 0.518 µM
TGI (SK-MEL-5 melanoma): 12.9 µM
GI50 (SK-OV-3 ovarian): 0.563 µM
TGI (SK-OV-3 ovarian): 18.4 µM
GI50 (SN12C renal): 0.477 µM
TGI (SN12C renal): 12.1 µM
GI50 (SNB-19 CNS): 0.385 µM
TGI (SNB-19 CNS): 10.9 µM
GI50 (SNB-75 CNS): 0.188 µM
TGI (SNB-75 CNS): 0.761 µM
GI50 (SW-620 colon): 0.335 µM
TGI (SW-620 colon): 15.6 µM
GI50 (T-47D breast): 0.464 µM
TGI (T-47D breast): 28.5 µM
GI50 (TK-10 renal): 1.55 µM
TGI (TK-10 renal): 24.4 µM
GI50 (U251 CNS): 0.443 µM
TGI (U251 CNS): 18.6 µM
GI50 (UACC-257 melanoma): 0.918 µM
TGI (UACC-257 melanoma): 20.5 µM
GI50 (UACC-62 melanoma): 0.341 µM
TGI (UACC-62 melanoma): 5.1 µM
GI50 (UO-31 renal): 0.323 µM
TGI (UO-31 renal): 7.65 µM

Cc1nc2ccc(CN(C)c3ccc(C(=O)N[C@@H](CCC(=O)O)C(=O)O)s3)cc2c(=O)[nH]1
TGI (786-0 renal): > 100 µM
GI50 (A498 renal): > 100 µM
TGI (A498 renal): > 100 µM
TGI (A549 NSCLC): > 100 µM
TGI (ACHN renal): > 100 µM
TGI (BT-549 breast): > 100 µM
TGI (CAKI-1 renal): > 100 µM
GI50 (CCRF-CEM leukemia): 0.027 µM
TGI (CCRF-CEM leukemia): > 100 µM
TGI (COLO 205 colon): > 100 µM
TGI (DU-145 prostate): > 100 µM
TGI (EKVX NSCLC): > 100 µM
GI50 (HCC-2998 colon): < 0.01 µM
TGI (HCC-2998 colon): > 100 µM
TGI (HCT-116 colon): > 100 µM
TGI (HCT-15 colon): > 100 µM
TGI (HL-60(TB) leukemia): > 100 µM
TGI (HOP-62 NSCLC): > 100 µM
TGI (HOP-92 NSCLC): > 100 µM
TGI (HS 578T breast): > 100 µM
TGI (HT29 colon): > 100 µM
TGI (IGROV1 ovarian): > 100 µM
TGI (K-562 leukemia): > 100 µM
TGI (KM12 colon): > 100 µM
TGI (LOX IMVI melanoma): > 100 µM
TGI (M14 melanoma): > 100 µM
TGI (MALME-3M melanoma): > 100 µM
TGI (MCF7 breast): > 100 µM
TGI (MDA-MB-231 breast): > 100 µM
TGI (MDA-MB-435): > 100 µM
TGI (MOLT-4 leukemia): > 100 µM
TGI (NCI-H226 lung): > 100 µM
GI50 (NCI-H23 lung): 2.62 µM
TGI (NCI-H23 lung): > 100 µM
TGI (NCI-H460 lung): > 100 µM
TGI (NCI-H522 lung): > 100 µM
GI50 (NCI/ADR-RES ovarian): < 0.0149 µM
TGI (NCI/ADR-RES ovarian): > 100 µM
TGI (OVCAR-3 ovarian): > 100 µM
TGI (OVCAR-4 ovarian): > 100 µM
TGI (OVCAR-5 ovarian): > 100 µM
TGI (OVCAR-8 ovarian): > 100 µM
TGI (PC-3 prostate): > 100 µM
TGI (RPMI-8226 leukemia): > 100 µM
GI50 (RXF 393 renal): > 21.7 µM
TGI (RXF 393 renal): > 100 µM
TGI (SF-268 CNS): > 100 µM
TGI (SF-295 CNS): > 100 µM
TGI (SK-MEL-2 melanoma): > 100 µM
TGI (SK-MEL-28 melanoma): > 100 µM
GI50 (SK-MEL-5 melanoma): 0.173 µM
TGI (SK-MEL-5 melanoma): > 100 µM
TGI (SK-OV-3 ovarian): > 100 µM
TGI (SN12C renal): > 100 µM
TGI (SNB-19 CNS): > 100 µM
TGI (SNB-75 CNS): > 100 µM
TGI (SR leukemia): > 100 µM
TGI (SW-620 colon): > 100 µM
TGI (T-47D breast): > 100 µM
TGI (TK-10 renal): > 100 µM
TGI (U251 CNS): > 100 µM
TGI (UACC-257 melanoma): > 100 µM
TGI (UACC-62 melanoma): > 100 µM
GI50 (UO-31 renal): < 0.01 µM
TGI (UO-31 renal): > 100 µM

— PubChem BioAssay (NCI)
